Measurements published in paper PMC9962304, “Insightful Improvement in the Design of Potent Uropathogenic E. coli FimH Antagonists” (Pharmaceutics, 2023).
“Also recorded” adds a separate entry of the source.

How the values were obtained:
[1] = tested on: strain CFT073 adhesion to HTB-9 cells; assay: Bacterial adhesion assay on bladder cell monolayers; format: cell-based, Escherichia coli / human; conditions: for efficiency at reducing FimH-mediated bacterial adherence (result in words): 500 μM, HTB-9 cells, CFT073
Experimental: To evaluate the efficacy of the synthetic mannoside antagonists to inhibit the ability of CFT073 strain to adhere to epithelial cells, an in vitro adhesion assay was performed. For this purpose, equal amounts of strain CFT073 strain were inoculated in PBS supplemented with different concentrations of each mannoside at final concentrations of 100, 500 μM, and 1 mM and incubated for 3h under static conditions. Bacterial inoculation was used to infect cell line 5637 (HTB-9 cell) monolayers at a multiplicity of infection (MOI) of 10. At 2.5 h post-infection, the number of cell-associated bacteria was calculated by CFU/mL counting (Figure 9). No significant inhibition of bacterial adhesion to bladder cells was obtained using mannoside inhibitors at 100 µM. Conversely, a significant reduction (more than 1 log) in the number of adherent bacteria was observed by increasing the concentration of the mannosides to 500 μM in comparison to non-treated bacteria (Figure 10). The same extent of reduction in bacterial adhesion to bladder cells was obtained by increasing mannosides concentration to 1 mM, thereby showing a dose-dependent effect. […] To appraise qualitatively the reduction of bacterial adhesion, parallel infected cells were fixed, and Giemsa stained.
HTB-9 cells were routinely seeded in cell culture plates and maintained 2–4 days at 37 °C in a humidified atmosphere containing 5% CO2. For the adhesion assay, cells were seeded in 35 mm tissue culture plates at a density of 1 × 10^5 cells/well and incubated at 37 °C for 48 h to reach confluency. CFT073 was grown in LB under mild shaking conditions overnight and resuspended in phosphate buffer (PBS) to an inoculum of ~10^6 CFU/mL (normalized according to OD600). Each mannoside molecule was added to CFT073 inoculant at the final concentrations of 100, 500 μM and 1 mM and incubated for 3 h in static conditions. […] Images were recorded with a Leica DM5000B microscope equipped with DFX340/DFX300 camera and processed using the Leica Application Suite 2.7.0.R1 software (Leica).

[2] = target: T1, FimH lectin domain (amino acids 1-158) (Escherichia coli, UniProt P08191); assay: biochemical; format: binding, E. coli; conditions: for IC50: IC50, competitive inhibition of biotinylated Man-BSA binding to coated FimH lectin; for RIP (relative inhibitory potency): relative to reference MeMan, 23
T1 construct: using a FimH lectin domain (amino acids 1-158) LEctPROFILE kit (provided by GLYcoDiag); purchased GLYcoDiag (Orléans, France)
T1 sequence (P08191 22-179): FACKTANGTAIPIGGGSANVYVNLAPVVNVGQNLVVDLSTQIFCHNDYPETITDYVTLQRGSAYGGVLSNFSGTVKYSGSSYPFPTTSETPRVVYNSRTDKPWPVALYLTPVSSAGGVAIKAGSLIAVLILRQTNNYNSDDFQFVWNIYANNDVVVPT
Experimental: To measure the relative binding affinity of the newly synthesized compounds 11, 20, and 18 against FimH, the usual referenced standards were used for comparison with previously published data: heptyl α-D-mannopyranoside (HepMan, 21), para-nitrophenyl α-D-mannopyranoside (PNPMan, 22), and methyl α-D-mannopyranoside (MeMan, 23). The relative inhibitory potential of the above compounds was determined against a biotinylated Man-BSA conjugate using a FimH lectin domain (amino acids 1-158) LEctPROFILE kit (provided by GLYcoDiag) (Figure 1, Table 1).
FimH LEctPROFILE kit assays from GLYcoDiag (Orléans, France) were performed according to GlycoDiag’s protocol already described. Briefly, the interaction profiles of each compound were determined through a competitive inhibition assay based on the inhibition by the compounds of the interaction between FimH lectin coated onto the microplate surface and a biotinylated neoglycoprotein NeoM (Man-BSA) as a tracer. A mix of biotinylated Man-BSA (fixed concentration) and the corresponding compounds (range of concentrations) prepared in PBS supplemented with 1 mM CaCl2 and 0.5 mM MgCl2 was deposited in each well (50 µL each) in triplicate and incubated for two hours at room temperature. After washing with PBS buffer, the conjugate streptavidin-DTAF (dichlorotriazinylamino fluorescein) was added (50 µL) and incubated 30 min more. The plate was washed again with PBS. Finally, 100 µL of PBS was added for the readout of fluorescent plate performed with a fluorescence reader (Pherastar microplate reader, BMG labtech, λex = 485 nm, λem = 530 nm). The signal intensity is inversely correlated with the capacity of the compound to be recognized by the lectin and expressed as inhibition percentage with comparison with the corresponding tracer alone. Data analysis was performed with GraphPadPrism software (version 5.03 for windows, San Diego, CA, USA). 50% inhibitory concentration (IC50) was determined according to a standard dose-response/inhibition fitting model with the following equation: y = 100 / (1 + [inhibitor]/IC50) and expressed in nanomolar units.

[3] = tested on: UPEC strain CFT073; assay: Mannosides as carbon source, CFU/mL counting in PBS; format: cell-based, Escherichia coli; conditions: 24 h, 37 °C, 500 μM (D-mannose also 83 mM)
Experimental: To test whether the above mannoside derivatives could exert bactericidal and/or cytotoxic activities, bacterial growth and cell viability assays were undertaken in the presence of each mannoside at different concentrations. Natural D-mannose (D-Man) was included as control. […] Moreover, no cytotoxic effect was recorded for urinary bladder cell line 5637 (HTB-9 cell) monolayers, as measured by the MTT test (Figure 6). Since D-mannose can serve as nutrient replacement for E. coli when there is a shortage of D-glucose, we tested whether these new derivatives could be used as carbon sources as well [5]. […] Bacteria were incubated for an additional 24 h in the absence and in the presence of different mannosides and the number of viable bacteria was assessed by CFU/mL counting. […] Since carbohydrates can influence the activity of conventional antibiotics, the activity of different classes of antibiotics such as ampicillin (AMP 30 μg/mL), streptomycin (SM 50 µg/mL), and gentamycin (GM 50 µg/mL) in the presence of the synthetic mannoside analogs was evaluated.
Mannosides dissolved in dimethyl sulfoxide DMSO or water at a final concentration of 5 mM were prepared. […] Readings of culture turbidity (OD600) were determined using a plate reader (POLARstar Omega BMG Labtech plate reader, Germany). […]

[4] = tested on: E. coli FimH; set-up: method as in PMID 28671638; conditions: unit inferred; previous work; cited from earlier work

| Structure (SMILES) | efficiency at reducing FimH-mediated bacterial adherence (result in words) [1] | IC50 [2] [nM] | RIP (relative inhibitory potency) [2] | number of viable bacteria (CFU/mL) compared to non-treated control [3] | Kd [4] [nM] | lower concentration than natural D-mannose for same extent of bacterial adhesion inhibition ([1]; compared with natural D-mannose) [fold] |
| --- | --- | --- | --- | --- | --- | --- |
| OC[C@H]1O[C@H](C/C=C/c2ccc3ncccc3c2)[C@@H](O)[C@@H](O)[C@@H]1O [Compound 11] | most efficient; also recorded: better potency in inhibiting bacterial adhesion | 3.17 ± 2.3 | 887 |  |  |  |
| O=[N+]([O-])c1ccc(O[C@H]2O[C@H](CO)[C@@H](O)[C@H](O)[C@@H]2O)cc1 [Compound 22, para-nitrophenyl α-D-mannopyranoside] |  | 74.1 | 38 |  |  |  |
| OC[C@H]1OC(O)[C@@H](O)[C@@H](O)[C@@H]1O (stereo partly drawn) [D-mannose] |  |  |  | supports the growth; also recorded: increased significantly |  |  |
| CCCCCCCO[C@H]1O[C@H](CO)[C@@H](O)[C@H](O)[C@@H]1O [Compound 21, heptyl α-D-mannopyranoside] |  | 19.4 ± 5.2 | 145 |  |  |  |
| OC[C@H]1O[C@H](C/C=C/c2ccc(-c3ccccc3)cc2)[C@@H](O)[C@@H](O)[C@@H]1O [Compound 18] |  | 30.3 ± 9 | 93 |  | 17 ± 3.5 |  |
| OC[C@H]1O[C@H](C/C=C/c2ccccc2-c2ccncc2)[C@@H](O)[C@@H](O)[C@@H]1O [Compound 20] |  | 0.82 ± 0.4 | 3428 |  |  |  |
| CO[C@H]1O[C@H](CO)[C@@H](O)[C@H](O)[C@@H]1O [Compound 23, methyl α-D-mannopyranoside] | less efficient | 2810 | 1 |  |  | 164 |
